Data from ChEMBL document CHEMBL4251708, “Synthesis and Biological Screening of Pyrano[3,2-c]quinoline Analogues as Anti-inflammatory and Anticancer Agents” (ACS Med Chem Lett, 2018).
Activity calls are given as the source filed them. The rule behind the calls is not given here.

Columns and labels:
THP-1 [1] = test: Antiinflammatory activity in PMA-differentiated human THP1 cells assessed as inhibition of LPS-induced TNF-alpha production at 1 uM after 24 hrs by ELISA relative to control; assay type: functional; conditions: THP-1, 24 h
MIA PaCa-2 = test: Antiproliferative activity against human MIAPaCa2 cells at 10 uM relative to control; assay type: functional
[2] = tested on: MIA PaCa-2 (Homo sapiens); test: Antiproliferative activity against human MIA PaCa-2 cells at 1 uM relative to control
THP-1 [3] = test: Antiinflammatory activity in PMA-differentiated human THP1 cells assessed as inhibition of LPS-induced IL-6 production at 10 uM after 24 hrs by ELISA relative to control; assay type: functional; conditions: THP-1, 24 h
THP-1 (Homo sapiens) [4] = test: Antiinflammatory activity in human THP1 cells assessed as inhibition of TNF-alpha production at 10 uM relative to control; set-up: scale not given: the % may be the effect or the level left
[5] = tested on: MDA-MB-231 (Homo sapiens); test: Antiproliferative activity against human MDA-MB-231 cells at 1 uM relative to control; conditions: mda-mb-231, 1 µM
ACHN (Homo sapiens) [6] = test: Antiproliferative activity against human ACHN cells at 1 uM relative to control
THP-1 [7] = test: Antiinflammatory activity in PMA-differentiated human THP1 cells assessed as inhibition of LPS-induced TNF-alpha production at 10 uM after 24 hrs by ELISA relative to control; assay type: functional; conditions: THP-1, 24 h
THP-1 [8] = test: Antiinflammatory activity in PMA-differentiated human THP1 cells assessed as inhibition of LPS-induced IL-6 production at 1 uM after 24 hrs by ELISA relative to control; assay type: functional; conditions: THP-1, 24 h
THP-1 (Homo sapiens) [9] = test: Antiinflammatory activity in human THP1 cells assessed as inhibition of IL-6 production at 10 uM relative to control; set-up: scale not given: the % may be the effect or the level left
Calu-1 = test: Antiproliferative activity against human Calu1 cells after 48 hrs by propidium iodide staining based fluorometry; assay type: functional, cell-based; conditions: Calu-1, 48 h
PANC-1 = test: Antiproliferative activity against human PANC1 cells after 48 hrs by propidium iodide staining based fluorometry; assay type: functional, cell-based; conditions: PANC-1, 48 h
A-549 (Homo sapiens) = test: Antiproliferative activity against human A-549 cells at 10 uM relative to control
THP-1 [10] = test: Antiinflammatory activity in PMA-differentiated human THP1 cells assessed as inhibition of LPS-induced IL-6 production after 24 hrs by ELISA; assay type: functional, cell-based; conditions: THP-1, 24 h
[11] = tested on: MDA-MB-231 (Homo sapiens); test: Antiproliferative activity against human MDA-MB-231 cells at 10 uM relative to control
THP-1 [12] = test: Cytotoxicity against PMA-differentiated human THP1 cells assessed as reduction in cell viability after 4.5 hrs by MTS assay; assay type: cell-based; conditions: THP-1, 4.5 h
PBMC = test: Antiinflammatory activity in human PBMC assessed as inhibition of LPS-induced TNF-alpha production incubated for 30 mins followed by LPS addition measured after 4.5 hrs by ELISA; assay type: functional, cell-based
HCT-116 = test: Antiproliferative activity against human HCT116 cells after 48 hrs by propidium iodide staining based fluorometry; assay type: functional, cell-based; conditions: HCT-116, 48 h
ACHN = test: Antiproliferative activity against human ACHN cells after 48 hrs by propidium iodide staining based fluorometry; assay type: functional, cell-based
THP-1 [13] = test: Antiinflammatory activity in PMA-differentiated human THP1 cells assessed as inhibition of LPS-induced TNF-alpha production after 24 hrs by ELISA; assay type: functional, cell-based; conditions: THP-1, 24 h
NCI-H460 = test: Antiproliferative activity against human H460 cells after 48 hrs by propidium iodide staining based fluorometry; assay type: functional, cell-based; conditions: NCI-H460, 48 h
ACHN (Homo sapiens) [14] = test: Antiproliferative activity against human ACHN cells at 10 uM relative to control

IC50 (Calu-1) [µM]	IC50 (PANC-1) [µM]	IC50 (THP-1 [10]) [µM]	IC50 (HCT-116) [µM]	IC50 (ACHN) [µM]	IC50 (THP-1 [13]) [µM]	IC50 (NCI-H460) [µM]	SMILES	inhibition at 1 µM (THP-1 [1]) [%]	Activity (MIA PaCa-2) [%]	Activity [2] [%]	inhibition at 10 µM (THP-1 [3]) [%]	Activity (THP-1 (Homo sapiens) [4]) [%]	Activity [5] [%]	Activity (ACHN (Homo sapiens) [6]) [%]	inhibition at 10 µM (THP-1 [7]) [%]	inhibition at 1 µM (THP-1 [8]) [%]	Activity (THP-1 (Homo sapiens) [9]) [%]	Activity [11] [%]	IC50 (THP-1 [12]) [µM]	inhibition (PBMC)	other results
–	–	–	–	–	–	–	Cn1c(=O)c2c(c3ccccc31)OC(N)=C(C#N)C2c1ccccc1Cl (stereo not given)	0	69	26	0	12	0	48	0	0	0	–	–	–	–
1.8	4.7	0.2	5.1	3.4	0.2	1.4	Cn1c(=O)c2c(c3ccccc31)OC(N)=C(C#N)C2c1cccc(Oc2ccccc2)c1 (stereo not given)	18	72	66	70	34	47	69	0	0	52	51	11	Dose-dependent effect	Activity (A-549 (Homo sapiens)): 67%; IC50 (PBMC): 0.2 µM
–	–	–	–	–	–	–	CCOc1cc(C2C(C#N)=C(N)Oc3c2c(=O)n(C)c2ccccc32)ccc1O (stereo not given)	0	68	27	0	0	12	6	0	0	–	88	–	–	–
–	–	–	–	–	–	–	Cn1c(=O)c2c(c3ccccc31)OC(N)=C(C#N)C2c1ccccc1[N+](=O)[O-] (stereo not given)	0	51	35	78	36	0	49	0	0	78	–	–	–	Activity (ACHN (Homo sapiens) [14]): 68%; Activity (A-549 (Homo sapiens)): 36%
> 20	> 20	1.4	> 20	> 20	11	> 20	Cn1c(=O)c2c(c3ccccc31)OC(N)=C(C#N)C2c1c[nH]c2ccccc12 (stereo not given)	0	77	18	8	0	16	27	0	0	–	67	6.8	inactive	–
–	–	–	–	–	–	–	Cn1c(=O)c2c(c3ccccc31)OC(N)=C(C#N)C2c1cccc(O)c1 (stereo not given)	5	29	17	0	4	0	0	0	0	11	12	–	–	–
–	–	–	–	–	–	–	Cn1c(=O)c2c(c3ccccc31)OC(N)=C(C#N)C2c1c2ccccc2cc2ccccc12 (stereo not given)	0	66	40	10	0	19	25	0	0	0	69	–	–	–
> 20	> 20	1.7	> 20	> 20	12.8	> 20	COc1ccc(C2C(C#N)=C(N)Oc3c2c(=O)n(C)c2ccccc32)cc1 (stereo not given)	0	84	80	73	0	70	78	0	0	77	81	30	inactive	–
